Values after ≈ are worked out from the molar mass of the structure shown. Where two headings read alike, the source gives them in different places.
Key:
E. coli ATCC 25922 [1] = assay: murine septicemia model of infection, E. coli; type: in vivo; settings: mice inoculated IP, single SC or IV dose 1 hour after challenge, mortality 7 days; ED50 values are mg/kg
Procedure: (§1) Two models were run on each compound, using E. coli and P. aeruginosa QC bacterial strains. Both studies employed the same design. […] At 1 hour after bacterial challenge, the mice received a single SC or IV […] dose of vehicle or test substance to assess in vivo anti-infective activity. Mortality was recorded once daily for 7 days after bacterial inoculation.

E. coli ATCC 25922 [2] = assay: MIC assay, CLSI broth microdilution, E. coli ATCC 25922 (AECO001); type: cell-based; settings: for MIC: Escherichia coli
In short: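 CLSI broth microdilution (M7-A7): two-fold compound dilutions in Mueller Hinton Broth, inoculum 5×10^5 CFU/mL final. Plates incubated 20 hours at 35° C. in ambient air; MIC read as lowest inhibitory concentration.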

P. aeruginosa ATCC 27853 [3] = assay: MIC assay, CLSI broth microdilution, P. aeruginosa ATCC 27853 (APAE001); type: cell-based; settings: for MIC: Pseudomonas aeruginosa
In short: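 Broth microdilution per CLSI M7-A7, with serial two-fold compound dilutions in Mueller Hinton Broth mixed 1:1 with inoculum. Colonies from a previous-day agar plate were suspended in saline to a final 5×10^5 CFU/mL. Plates were incubated 20 hours at 35° C. in ambient air.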

P. aeruginosa ATCC 27853 [4] = assay: murine septicemia model of infection, P. aeruginosa; type: in vivo; settings: mice inoculated IP, single SC or IV dose 1 hour after challenge, mortality 7 days; ED50 values are mg/kg
Procedure: as §1

[5] = ATCC27853, Table 2, read-out: MIC P. aeruginosa
[6] = AECO001 is ATCC25922, 35° C., 20 hours, read-out: MIC AECO001
[7] = APAE001 is ATCC27853, 35° C., 20 hours, read-out: MIC APAE001
[8] = ATCC25922, 20 h, read-out: MIC AECO001
[9] = ATCC27853, 20 h, read-out: MIC APAE001

| Compound | ED50/MIC E. Coli (E. coli ATCC 25922 [1]) | MIC (E. coli ATCC 25922 [2]; ATCC25922, Table 2, read-out: MIC E. coli) | MIC (P. aeruginosa ATCC 27853 [3]; [5]) | ED50/MIC P. aeruginosa (P. aeruginosa ATCC 27853 [4]) | MIC (E. coli ATCC 25922 [2]; [6]) | MIC (P. aeruginosa ATCC 27853 [3]; [7]) | MIC (E. coli ATCC 25922 [2]; [8]) | MIC (P. aeruginosa ATCC 27853 [3]; [9]) | MIC E. coli (E. coli ATCC 25922 [2]; Table 2) | MIC P. aeruginosa (P. aeruginosa ATCC 27853 [3]; Table 2) |
| --- | --- | --- | --- | --- | --- | --- | --- | --- | --- | --- |
| NCC[C@H](O)C(=O)N[C@@H]1C[C@H](N)[C@@H](O[C@H]2O[C@H](CN)[C@@H](O)[C@H](O)[C@H]2O)[C@H](O)[C@H]1O[C@H]1O[C@H](CO)[C@@H](O)[C@H](N)[C@H]1O [Amikacin, amikacin, reference compound] | 1.5 | 1 to 16 µg/mL (≈ 1.71 to 27.3 µM) | 1 to 16 µg/mL (≈ 1.71 to 27.3 µM) | 13 |  |  |  |  |  |  |
| CN[C@@H]1[C@@H](O)[C@@H](O[C@@H]2[C@@H](O)[C@H](O[C@H]3OC(CNCCO)=CC[C@H]3N)[C@@H](N)C[C@H]2NC(=O)[C@@H](O)CCN)OC[C@]1(C)O [Example 1, 6′-(2-Hydroxy-ethyl)-1-(4-amino-2(S)-hydroxy-butyryl)-sisomicin] | <2 |  | 1 to 16 µg/mL (≈ 1.69 to 27 µM) | 4 | < 1 µg/mL | 1 to 16 µg/mL (≈ 1.69 to 27 µM) |  |  |  |  |
| CN[C@@H]1[C@@H](O)[C@@H](O[C@@H]2[C@@H](O)[C@H](O[C@H]3OC(CNCC4CCNCC4)=CC[C@H]3N)[C@@H](N)C[C@H]2NC(=O)[C@@H](O)CN)OC[C@]1(C)O [Example 15, 6′-(Methyl-piperidin-4-yl)-1-(3-amino-2(S)-hydroxy-propionyl)-sisomicin] |  |  | 1 to 16 µg/mL (≈ 1.58 to 25.3 µM) | 1 | < 1 µg/mL | 1 to 16 µg/mL (≈ 1.58 to 25.3 µM) |  |  |  |  |
| CN[C@@H]1[C@@H](O)[C@@H](O[C@@H]2[C@@H](O)[C@H](O[C@H]3OC(CNCCO)=CC[C@H]3N)[C@@H](N)C[C@H]2NC(=O)[C@@H](O)CN)OC[C@]1(C)O [Example 16, 6′-(2-Hydroxy-ethyl)-1-(3-amino-2(S)-hydroxy-propionyl)-sisomicin] | 1 |  | 1 to 16 µg/mL (≈ 1.73 to 27.6 µM) | 3 | < 1 µg/mL | 1 to 16 µg/mL (≈ 1.73 to 27.6 µM) |  |  |  |  |
| CN[C@@H]1[C@@H](O)[C@@H](O[C@@H]2[C@@H](O)[C@H](O[C@H]3OC(CNCCCN)=CC[C@H]3N)[C@@H](N)C[C@H]2NC(=O)[C@@H](O)CN)OC[C@]1(C)O [Example 17, 6′-(3-Amino-propyl)-1-(3-amino-2(S)-hydroxy-propionyl)-sisomicin] | 1 |  | 1 to 16 µg/mL (≈ 1.69 to 27 µM) | 5 | < 1 µg/mL | 1 to 16 µg/mL (≈ 1.69 to 27 µM) |  |  |  |  |
| CN[C@@H]1[C@@H](O)[C@@H](O[C@@H]2[C@@H](O)[C@H](O[C@H]3OC(CNCC(O)CN)=CC[C@H]3N)[C@@H](N)C[C@H]2NC(=O)[C@@H](O)CN)OC[C@]1(C)O (stereo partly drawn) [Example 22, 6′-(3-Amino-2-hydroxy-propyl)-1-(3-amino-2(S)-hydroxy-propionyl)-sisomicin] | 1 |  | 1 to 16 µg/mL (≈ 1.65 to 26.3 µM) | 8 | 1 to 16 µg/mL (≈ 1.65 to 26.3 µM) | 1 to 16 µg/mL (≈ 1.65 to 26.3 µM) |  |  |  |  |
| CN[C@@H]1[C@@H](O)[C@@H](O[C@@H]2[C@@H](O)[C@H](O[C@H]3OC(CNCCCN)=CC[C@H]3N)[C@@H](N)C[C@H]2NC(=O)C2(O)CNC2)OC[C@]1(C)O [Example 57] | 2 |  | < 1 µg/mL | 14 | < 1 µg/mL | < 1 µg/mL |  |  |  |  |
| CN[C@@H]1[C@@H](O)[C@@H](O[C@@H]2[C@@H](O)[C@H](O[C@H]3OC(CN)=CC[C@H]3NC3CNC3)[C@@H](N)C[C@H]2NC(=O)[C@@H](O)CCN)OC[C@]1(C)O [Example 96, 2′-(Azetidin-3-yl)-1-(4-amino-2(S)-hydroxy-butyryl)-sisomicin] |  |  | 1 to 16 µg/mL (≈ 1.66 to 26.5 µM) | 3 | < 1 µg/mL | 1 to 16 µg/mL (≈ 1.66 to 26.5 µM) |  |  |  |  |
| CN[C@@H]1[C@@H](O)[C@@H](O[C@@H]2[C@@H](O)[C@H](O[C@H]3OC(CN)=CC[C@H]3NCCCCN)[C@@H](N)C[C@H]2NC(=O)[C@@H](O)CCN)OC[C@]1(C)O [Example 102, 2′-(4-Amino-butyl)-1-(4-amino-2(S)-hydroxy-butyryl)-sisomicin] |  |  |  |  |  |  | < 1 µg/mL | 1 to 16 µg/mL (≈ 1.61 to 25.8 µM) |  |  |
| CN[C@@H]1[C@@H](O)[C@@H](O[C@@H]2[C@@H](O)[C@H](O[C@H]3OC(CN)=CC[C@H]3NC(=N)N)[C@@H](N)C[C@H]2NC(=O)[C@@H](O)CCN)OC[C@]1(C)O [Example 103, 2′-Guanidinium-1-(4-amino-2(S)-hydroxy-butyryl)-sisomicin] | 2 |  | < 1 µg/mL | 6 | < 1 µg/mL | < 1 µg/mL |  |  |  |  |
| CN[C@@H]1[C@@H](O)[C@@H](O[C@@H]2[C@@H](O)[C@H](O[C@H]3OC(CN)=CC[C@H]3NC[C@H]3C[C@H](N)C3)[C@@H](N)C[C@H]2NC(=O)[C@@H](O)CCN)OC[C@]1(C)O [Example 104, 2′-(Methyl-trans-3-amino-cyclobutyl)-1-(4-amino-2(S)-hydroxy-butyryl)-sisomicin] |  |  |  |  |  |  | < 1 µg/mL | 1 to 16 µg/mL (≈ 1.58 to 25.3 µM) |  |  |
| CN[C@@H]1[C@@H](O)[C@@H](O[C@@H]2[C@@H](O)[C@H](O[C@H]3OC(CNC(=N)N)=CC[C@H]3NC(=N)N)[C@@H](N)C[C@H]2N)OC[C@]1(C)O [Example 105, 6′,2′-bis-Guanidinium-sisomicin] |  |  |  |  |  |  | > 16 µg/mL | > 16 µg/mL |  |  |
| CN[C@@H]1[C@@H](O)[C@@H](O[C@@H]2[C@@H](O)[C@H](O[C@H]3OC(CNCCO)=CC[C@H]3NC(=N)N)[C@@H](N)C[C@H]2N)OC[C@]1(C)O [Example 106, 6′-(2-Hydroxy-ethyl)-2′-guanidinium-sisomicin] |  |  |  |  |  |  | < 1 µg/mL | 1 to 16 µg/mL (≈ 1.87 to 30 µM) |  |  |
| CN[C@@H]1[C@@H](O)[C@@H](O[C@@H]2[C@@H](O)[C@H](O[C@H]3OC(CNC[C@H]4C[C@H](N)C4)=CC[C@H]3NC(=N)N)[C@@H](N)C[C@H]2N)OC[C@]1(C)O [Example 107, 6′-(Methyl-trans-3-amino-cyclobutyl)-2′-guanidinium-sisomicin] |  |  |  |  |  |  | 1 to 16 µg/mL (≈ 1.75 to 27.9 µM) | < 1 µg/mL |  |  |
| CNCC1=CC[C@@H](NC(=N)N)[C@@H](O[C@H]2[C@H](O)[C@@H](O[C@H]3OC[C@](C)(O)[C@H](NC)[C@H]3O)[C@H](N)C[C@@H]2N)O1 [Example 108, 6′-Methyl-2′-guanidinium-sisomicin] |  |  |  |  |  |  | < 1 µg/mL | 1 to 16 µg/mL (≈ 1.99 to 31.8 µM) |  |  |
| gentamicin [reference compound] | 2.4 |  |  | 12 |  |  |  |  | A (MIC's of 1.0 μg/mL or less = A) | A (MIC's of 1.0 μg/mL or less = A) |
